Assay in all cases: Anti-microbial activity test in vitro (agar dilution MIC)
One assay has as its system S. pyogenes ATCC8668. It counts as cell-based. Conditions: S. pyogenes ATCC8668; Agar Dilution method, Mueller Hinton Agar, 18 hours at 37° C. The procedure, abridged: (§1)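 MIC in μg/ml, scored by eye after 18 h at 37 °C on Mueller Hinton agar plates carrying twofold stepwise compound dilutions.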
A further assay relates to E. faecalis C6288. The class given is cell-based. The following applies: E. faecalis C6288; Agar Dilution method, Mueller Hinton Agar, 18 hours at 37° C. Put shortly:
as §1

The subject of a further assay is E. faecalis ATCC29212. The class given is cell-based. Conditions: E. faecalis ATCC29212; Agar Dilution method, Mueller Hinton Agar, 18 hours at 37° C. Put shortly:
as §1

The next assay deals with E. faecium C6301. The class given is cell-based. The following applies: E. faecium C6301; Agar Dilution method, Mueller Hinton Agar, 18 hours at 37° C. Put shortly: as §1
A further assay has as its system S. pyogenes C6003. The class given is cell-based. The following applies: S. pyogenes C6003; Agar Dilution method, Mueller Hinton Agar, 18 hours at 37° C. Put shortly:
as §1

A further assay concerns S. epidermidis C2235. It counts as cell-based. Conditions: S. epidermidis C2235; Agar Dilution method, Mueller Hinton Agar, 18 hours at 37° C. The procedure, abridged: as §1
A further assay has as its system E. faecalis C6291. It counts as cell-based. The following applies: E. faecalis C6291; Agar Dilution method, Mueller Hinton Agar, 18 hours at 37° C. The procedure, abridged:
as §1

For a further assay, the system named is S. aureus ATCC 29213. It counts as cell-based. Conditions: Agar Dilution method, Mueller Hinton Agar, 18 hours at 37° C. Put shortly:
as §1

For the next assay, the system named is S. epidermidis C2230. The class given is cell-based. Conditions: S. epidermidis C2230; Agar Dilution method, Mueller Hinton Agar, 18 hours at 37° C. Put shortly:
as §1

The test system of another assay is S. epidermidis ATCC12228. The class given is cell-based. Conditions: S. epidermidis ATCC12228; Agar Dilution method, Mueller Hinton Agar, 18 hours at 37° C. Put shortly: as §1
For a further assay, the system named is E. faecium C2252. The class given is cell-based. Conditions: E. faecium C2252; Agar Dilution method, Mueller Hinton Agar, 18 hours at 37° C. Put shortly:
as §1

In another assay the test system is S. pyogenes C6012. It counts as cell-based. The following applies: S. pyogenes C6012; Agar Dilution method, Mueller Hinton Agar, 18 hours at 37° C. The procedure, abridged:
as §1

The next assay relates to VRE C6487. The class given is cell-based, Enterococcus faecium. Conditions: VRE C6487; Agar Dilution method, Mueller Hinton Agar, 18 hours at 37° C. Put shortly:
as §1

A further assay relates to VRE C6488. The class given is cell-based, Enterococcus faecium. Conditions: VRE C6488; Agar Dilution method, Mueller Hinton Agar, 18 hours at 37° C. Put shortly: as §1
The next assay relates to MRSA C5100. It counts as cell-based, Staphylococcus aureus. Conditions: MRSA C5100; Agar Dilution method, Mueller Hinton Agar, 18 hours at 37° C. The procedure, abridged:
as §1

The next assay relates to MSSA C2214. It counts as cell-based, Staphylococcus aureus. The following applies: MSSA C2214; Agar Dilution method, Mueller Hinton Agar, 18 hours at 37° C. Put shortly:
as §1

In the next assay the test system is CRSA C6043. The class given is cell-based, Staphylococcus aureus. The following applies: CRSA C6043; Agar Dilution method, Mueller Hinton Agar, 18 hours at 37° C. Put shortly: as §1
In another assay the test system is MRSA C6068. The class given is cell-based, Staphylococcus aureus. The following applies: MRSA C6068; Agar Dilution method, Mueller Hinton Agar, 18 hours at 37° C. Put shortly: as §1
In a further assay the test system is MRSA C2207. The class given is cell-based, Staphylococcus aureus. The following applies: MRSA C2207; Agar Dilution method, Mueller Hinton Agar, 18 hours at 37° C. Put shortly:
as §1

A further assay deals with MSSA C7142. The class given is cell-based, Staphylococcus aureus. The following applies: MSSA C7142; Agar Dilution method, Mueller Hinton Agar, 18 hours at 37° C. The procedure, abridged:
as §1

Another assay concerns CRSA C1062. It counts as cell-based, Staphylococcus aureus. The following applies: CRSA C1062; Agar Dilution method, Mueller Hinton Agar, 18 hours at 37° C. The procedure, abridged:
as §1

Structures are written as SMILES. Values after ≈ are worked out from the molar mass of the structure shown.

With `CC(=O)NC[C@H]1CN(c2ccc(N3CCC(=CC(=O)O)CC3)c(F)c2)C(=O)O1` [Compound 14, N-[[(5S)-3-[3-fluoro-4-(4-carboxymethylidenepiperidinyl)-phenyl]-2-oxo-5-oxazolidinyl]methyl]acetamide], the “Minimum inhibition concentration (MIC)” value in the assay on S. pyogenes ATCC8668 turned out to be 4 µg/mL (≈ 10.2 µM); with E. faecalis C6288, 4 µg/mL (≈ 10.2 µM); with E. faecalis ATCC29212, 8 µg/mL (≈ 20.4 µM); with E. faecium C6301, 4 µg/mL (≈ 10.2 µM); in the assay with S. pyogenes C6003, 2 µg/mL (≈ 5.11 µM); with S. epidermidis C2235 it was 1 µg/mL (≈ 2.55 µM). The “Minimum inhibition concentration (MIC)” value with E. faecalis C6291 is 8 µg/mL (≈ 20.4 µM); in the assay on S. aureus ATCC 29213, 8 µg/mL (≈ 20.4 µM); in the assay on S. epidermidis C2230, 4 µg/mL (≈ 10.2 µM); in the assay on S. epidermidis ATCC12228, 1 µg/mL (≈ 2.55 µM); in the assay with E. faecium C2252, 8 µg/mL (≈ 20.4 µM); in the assay with S. pyogenes C6012, 8 µg/mL (≈ 20.4 µM). In addition, the “Minimum inhibition concentration (MIC)” value in the assay with VRE C6487 is 1 µg/mL (≈ 2.55 µM); in the assay with VRE C6488, 8 µg/mL (≈ 20.4 µM); in the assay with MRSA C5100, 4 µg/mL (≈ 10.2 µM); in the assay with MSSA C2214, 8 µg/mL (≈ 20.4 µM); with CRSA C6043, 8 µg/mL (≈ 20.4 µM); in the assay with MRSA C6068, 4 µg/mL (≈ 10.2 µM). Moreover, the “Minimum inhibition concentration (MIC)” value in the assay with MRSA C2207 is 8 µg/mL (≈ 20.4 µM); in the assay on MSSA C7142, 8 µg/mL (≈ 20.4 µM); in the assay with CRSA C1062, 16 µg/mL (≈ 40.9 µM).
For the compound `CCOC(=O)C=C1CCN(c2ccc(N3C[C@H](CNC(C)=O)OC3=O)cc2F)CC1` [Compound 11, N-[[(5S)-3-[3-fluoro-4-(4-ethoxycarbonylmethylidene-piperidinyl)phenyl]-2-oxo-5-oxazolidinyl]methyl]acetamide], the “Minimum inhibition concentration (MIC)” value turned out to be 2 µg/mL (≈ 4.77 µM) in the assay on S. pyogenes ATCC8668; 8 µg/mL (≈ 19.1 µM) in the assay on E. faecalis C6288; 8 µg/mL (≈ 19.1 µM) in the assay with E. faecalis ATCC29212; 8 µg/mL (≈ 19.1 µM) in the assay with E. faecium C6301; 8 µg/mL (≈ 19.1 µM) in the assay on S. pyogenes C6003; 4 µg/mL (≈ 9.54 µM) in the assay on S. epidermidis C2235. The “Minimum inhibition concentration (MIC)” value in the assay on E. faecalis C6291 came out at 8 µg/mL (≈ 19.1 µM); in the assay on S. aureus ATCC 29213 it was 16 µg/mL (≈ 38.1 µM); in the assay with S. epidermidis C2230 it was 8 µg/mL (≈ 19.1 µM); with S. epidermidis ATCC12228, 2 µg/mL (≈ 4.77 µM); in the assay on E. faecium C2252, 8 µg/mL (≈ 19.1 µM); in the assay on S. pyogenes C6012, 2 µg/mL (≈ 4.77 µM). Further, the “Minimum inhibition concentration (MIC)” value with VRE C6487 came out at 8 µg/mL (≈ 19.1 µM); in the assay with VRE C6488, 8 µg/mL (≈ 19.1 µM); in the assay with MRSA C5100, 8 µg/mL (≈ 19.1 µM); in the assay on MSSA C2214 it was 16 µg/mL (≈ 38.1 µM); in the assay with CRSA C6043, 8 µg/mL (≈ 19.1 µM); with MRSA C6068, 8 µg/mL (≈ 19.1 µM). Also, the entries for the “Minimum inhibition concentration (MIC)” value in the assay on MRSA C2207, in the assay with MSSA C7142 and in the assay on CRSA C1062 were 8 µg/mL (≈ 19.1 µM), 16 µg/mL (≈ 38.1 µM) and 8 µg/mL (≈ 19.1 µM), respectively.

(Values after patent US20040087633A1, “Methylidene oxazolidinone compound and preparation method thereof” (Korea Institute of Science and Technology, priority 2002, published 2004).)
